Patent US20260258084A1, “New Peptides as Selective IL-23 Receptor Antagonists” (Sanofi, priority 2022, published 2026)
≈ marks a conversion by molar mass, not a printed value. Read-outs that look alike come from different tables or passages of the source. Starred links: 1 amine or outer side, 2 acyl side, 3 side chain; linkers in the order of their positions; H or OH if unused. Positions of bridges follow the written chain, without caps; N, C: chain ends. Non-standard residues stand in square brackets, D forms with d. Residues, ends and D or L forms follow the SMILES beside them. No end group written: not given here. *: point of attachment. Yde = (2S)-2-amino-3-[4-[2-(dimethylamino)ethoxy]phenyl]propanoic acid, CN(C)CCOc1ccc(C[C@H](N[*:1])C(=O)[*:2])cc1; Trp(7-Me) = Cc1cccc2c(C[C@H](N)C(=O)O)c[nH]c12; X1 = O=C(CCCCN[*:3])N[C@@H](CS[*:2])C(=O)[*:1]; αMeLys(Me2) = CN(C)CCCC[C@](C)(N)C(=O)O; X2 = CN(C)[C@@H](CCCCN[*:1])C(=O)[*:2]; 2Nal = N[C@@H](Cc1ccc2ccccc2c1)C(=O)O; εLys = N[C@@H](CCCCN[*:1])C(=O)[*:2]; NMe5Ava = CN(CCCCC(=O)[*:2])[*:1]; 3Pal = N[C@@H](Cc1cccnc1)C(=O)O; Dad = desamino-aspartamic acid; αMeL = CC(C)C[C@](C)(N)C(=O)O; Me2NCH2CH2 = CN(C)CC*; Sar = CNCC(=O)O

T1: IL-23 receptor on the surface of HEK-Blue IL-23 cells (UniProt Q5VWK5 24-629, limits assumed)
T1 sequence (looked up): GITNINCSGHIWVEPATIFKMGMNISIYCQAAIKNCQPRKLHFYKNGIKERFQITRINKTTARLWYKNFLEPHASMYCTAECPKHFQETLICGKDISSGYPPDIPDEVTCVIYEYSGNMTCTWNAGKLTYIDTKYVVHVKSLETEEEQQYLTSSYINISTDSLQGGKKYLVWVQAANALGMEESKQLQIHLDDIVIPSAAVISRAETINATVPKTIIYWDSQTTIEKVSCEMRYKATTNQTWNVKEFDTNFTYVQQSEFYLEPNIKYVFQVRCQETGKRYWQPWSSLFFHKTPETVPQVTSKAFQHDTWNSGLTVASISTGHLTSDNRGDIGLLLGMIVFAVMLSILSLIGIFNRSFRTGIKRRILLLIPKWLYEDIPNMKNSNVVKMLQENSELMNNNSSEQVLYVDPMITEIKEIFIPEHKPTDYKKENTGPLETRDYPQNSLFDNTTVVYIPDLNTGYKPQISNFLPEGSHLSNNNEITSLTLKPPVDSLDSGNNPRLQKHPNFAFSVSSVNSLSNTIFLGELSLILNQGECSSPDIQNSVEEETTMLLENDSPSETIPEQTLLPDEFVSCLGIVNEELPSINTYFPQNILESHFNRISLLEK

B1: Compound of SEQ ID NO: 158 (peptide)
peptide: [Dad]C[εLys][Trp(7-Me)]LC[Yde][2Nal][αMeL]KN[3Pal][Sar]-NH2
modifications: disulfide 2-6; lactam 1-10; also: K3 acetylated (K[aAc]), acetyl site not given here, ε-NH2 takes the Cys2 bond

Experiments:
Pancreatin = assay: Protease stability in simulated intestinal fluid (Pancreatin-SIF, FaSSIF); assay type: in vitro ADME; conditions: 1 μM peptide, 37° C.; for remaining at 1 h, 1 µM: 60 min, read-out: FaSSIF 60 (min), remaining percent of peptide; for remaining at 2 h, 1 µM: 120 min, read-out: FaSSIF 120 (min), remaining percent of peptide; for remaining at 4 h, 1 µM: 240 min, read-out: FaSSIF 240 (min), remaining percent of peptide
Protocol: (§1) Studies were carried out in simulated intestinal fluid (SIF) and simulated gastric fluid (SGF) to evaluate gastric stability of the peptide compounds disclosed herein.
Similarly, the term “Pancreatin-SIF” refers to a solution of simulated intestinal fluid containing pancreatin whereas “SIF-media” refers to a solution of simulated intestinal fluid without pancreatin.
Pancreatin-SIF was prepared by dissolving 1 mg Pancreatin (MP Biomedicals) in 10 mL SIF media concentrate (ProSense).
(§2) Peptides were first dissolved at 1 mM stock concentration in 0.01 HCl (+/−10% of DMSO) and were than diluted further with water to a stock concentration of 20 μM. Final peptide concentration in the incubation was 1 μM.
(§3) To 76 μL of the Pepsin-SGF buffer, 4 μL of the 20 µM peptide stock solution was added and incubated at 37° C. At each timepoint (0, 60, 120 and 240 minutes) the reaction was quenched with addition of 80 μL Ethanol (0.1% HCOOH). The samples were centrifuged for 20 minutes and an aliquot of the supernatant 100 μL were transferred to a LoBind-MTP plate and analyzed by LCMS/MS. The peak area response was calculated at each time point for each test compound. As internal reference, the peak area response of the same test compound at TO was calculated. The percent remaining at each timepoint was calculated based on the peak area response ratio of the test compound at TO. Time 0 was set to 100%, and all later timepoints were calculated relative to time 0.

[1] = tested on: IL-23 induced STAT3 signaling in HEK-Blue™ IL-23 cells; assay: IL-23 induced STAT3 signaling in HEK-Blue IL-23 cells (SEAP reporter); assay type: cell-based; conditions: human IL23 0.25 ng/ml, read-out: pSTAT3
Source text: HEK-Blue™ IL-23 cells (Invivogen) are designed for the detection of bioactive human (hIL-23) and murine IL-23 (mIL-23) by monitoring the activation of the STAT3 pathway. Binding of IL-23 to its receptor on the surface of HEK-Blue™ IL-23 cells triggers a signalling cascade leading to the activation of STAT3 and the subsequent production of secreted embryonic alkaline phosphatase (SEAP). This can be readily assessed using QUANTI-Blue™ Solution, a SEAP detection reagent.
HEK-Blue™ IL-23 cells were cultured as described by Invivogen.
On the first day of assay 10 μL of the HEK-Blue IL23 cell suspension (final concentration: 10,000 cells/well) and 10 μl of serially diluted peptides solutions were dispensed into a 384-well assay plate. After pre-incubation of the reaction mixtures at 37° C./5% CO2/95% humidity for 60 minutes, 10 μl of the human IL23 cytokine (final concentration: 0.25 ng/ml) was added to each well for the STAT3 signalling activation. The plate was incubated overnight at 37° C./5% CO2/95% humidity.
On the second day 20 μl per well of Quanti-Blue detection solution (prepared according to the manufacture instruction) was dispensed into a new 384-well plate and followed by the transfer of 5 μl supernatant of the overnight incubated cell/sample mixtures. After incubation of 45 min at room temperature signals were measured with PHERAstar (BMG) at OD 620-655 nm. Dose response data were fitted with XLfit.

Pepsin = tested on: T2, Pepsin; assay: Protease stability in simulated gastric fluid (Pepsin-SGF, FaSSGF); assay type: in vitro ADME; conditions: simulated gastric fluid with pepsin (Pepsin-SGF), 60 min, 1 μM peptide, 37° C., read-out: FaSSGF 60 (min), remaining percent of peptide
T2 construct: purchased Merck Millipore
Protocol: as §1
For clarification the term “Pepsin-SGF” refers to a solution of simulated gastric fluid containing pepsin whereas “SGF media” refers to a solution of simulated gastric fluid without pepsin. Pepsin-SGF was prepared by dissolving 320 mg Pepsin (Merck Millipore) in 100 mL SGF media concentrate (ProSense).
as §2
as §3, with “μM” for “µM”

[2] = biological target: T3, human interleukin-23 receptor (recombinant human IL-23R-Fc chimera) (Homo sapiens, UniProt Q5VWK5); assay: Human ELISA IL23/IL23R (assay for specific human IL23R antagonists); assay type: binding; conditions: Table 10; read-out: Human ELISA IL23/IL23R IC50
T3 construct: Fc (IgG Fc fusion)
Protocol: Antagonism of compounds for human interleukin-23 receptor antagonists, was determined by an ELISA assay.
A 384-well plate was coated with 50 μl/well of human IL23 at a final concentration of […] and incubated overnight at 4° C. The wells were washed 3 times with 80 μl wash buffer and blocked with 80 μl blocking buffer for 60 minutes at room temperature and washed again. 20 μl of serially diluted test peptides was added to each well and subsequently 20 μl of recombinant human IL-23R-Fc chimera at final concentration of 0.1 μg/ml. The plate was incubated for 60 minutes at room temperature. After the wells were washed, bound IL23R-Fc was detected with goat anti-hu-IgG1-HRP antibody. Signals were visualized with QuantaBlu Fluorogenic Peroxidase Substrate.

[3] = Chemical stability assessment of peptides (relative purity loss); assay type: physicochemical; conditions: 24 hours at 37° C.
Protocol: Purity of a peptide batch was determined through UPLC/MS (Methods B-G) prior to chemical stability measurement. The target concentration was 1 mg/ml pure compound. Solutions from solid samples were prepared in the following buffer systems with a concentration of 1 mg/ml compound based on the previously determined % purity: • Solubility buffer system A) 50 mM HCl pH 1.2+Acetonitrile (1:1) • Solubility buffer system B) 50 mM phosphate buffer pH 6.5+Acetonitrile (1:1) • Solubility buffer system C) 50 mM phosphate buffer pH 7.4+Acetonitrile (1:1)
Prepared solutions were stored for 24 hours at 2° C. and 37° C. After this time course, the samples were centrifuged for 15 min at 2500 RCF to create a 1:5 dilution of the supernatant. Then 2 μl of the dilution were analysed with UHPLC-UV.
The chemical stability was rated through the relative loss of purity calculated by the equation:
[(purity after 0 hours at 37° C.)−(purity after 24 hours at 37° C.)]/(purity after 0 hours at 37° C.)]*100%
The purity is calculated as [(peak area peptide)/(total peak area)]*100%.

[4] = Solubility testing of peptides at different pH; assay type: physicochemical; conditions: target concentration 1 mg/ml, 2 hours agitation
Protocol: Prior to the solubility measurement of a synthesized peptide batch, its purity was determined through UPLC/MS (methods B-G).
For solubility testing the target concentration was 1 mg pure compound/ml. Therefore, solutions from solid samples were prepared in a buffer system at a concentration of 1 mg/mL compound. The solid samples were obtained by drying down aliquots of a dimethyl sulfoxide stock solution using a Thermo Speedvac vacuum centrifuge. The dry down time was 3 hours. • Solubility buffer system A) 50 mM HCl pH 1.2 • Solubility buffer system B) 50 mM phosphate buffer pH 6.5 • Solubility buffer system C) 50 mM phosphate buffer pH 7.4 • Solubility buffer system D) 50 mM phosphate buffer pH 9.0
UPLC-UV (Method A) was performed after 2 hours of gentle agitation from the filtered (0.45 μm filter plates) solutions, which was obtained by 10 mins of centrifugation forced filtration at 1500 RCF (relative centrifugal acceleration).
The solubility was determined by the comparison of the UV peak area of 2 μL-injections of a buffered sample diluted 1:5 with a standard curve of a dimethyl sulfoxide reference sample of the diluted in dimethyl sulfoxide with known concentration. The different extinction coefficients were taken into account for the calculation.

[5] = biological target: T1, IL-23 receptor on the surface of …; assay: cell-based or functional assay

Row | Molecule | remaining at 1 h, 1 µM (Pancreatin) [%] | remaining at 2 h, 1 µM (Pancreatin) [%] | remaining at 4 h, 1 µM (Pancreatin) [%] | IC50 [1] [nM] | remaining at 1 h, 1 µM (Pepsin) [%] | IC50 [2] [nM] | Chemical stability (relative purity loss) Buffer pH 1.2 ([3]; 50 mM HCl pH 1.2 + acetonitrile (1:1)) [%] | Chemical stability (relative purity loss) Buffer pH 6.5 ([3]; 50 mM phosphate buffer pH 6.5 + acetonitrile (1:1)) [%] | Chemical stability (relative purity loss) Buffer pH 7.4 ([3]; 50 mM phosphate buffer pH 7.4 + acetonitrile (1:1)) [%] | solubility at 2 h ([4]; 50 mM HCl buffer, 50 mM HCl pH 1.2, read-out: Solubility Buffer pH 1.2) [µg/mL] | solubility at 2 h ([4]; 50 mM phosphate buffer pH 6.5, read-out: Solubility Buffer pH 6.5) [µg/mL] | solubility at 2 h ([4]; 50 mM phosphate buffer pH 7.4, read-out: Solubility Buffer pH 7.4) [µg/mL] | solubility at 2 h ([4]; 50 mM phosphate buffer pH 9.0, read-out: Solubility Buffer pH 9.0) [µg/mL] | pSTAT3 (nM) [5] [nM]
1 | CC(=O)N[C@H]1CCCCNC(=O)[C@@H]2CSSC[C@H](NC(=O)[C@H](CCC(N)=O)NC(=O)[C@H](Cc3c[nH]c4ccccc34)NC1=O)C(=O)N[C@@H](Cc1ccc(OCCN(C)C)cc1)C(=O)N[C@@H](Cc1ccc3ccccc3c1)C(=O)N[C@@](C)(CC(C)C)C(=O)N[C@H](C(=O)N[C@@H](CC(N)=O)C(=O)N[C@@H](CC(N)=O)C(N)=O)CCC(=O)NCCCCC(=O)N2 [compound 28] (Ac-KWQCY(Me2NCH2CH2)[2Nal][αMeL]ENN-NH2; linker 1-4-8 via X1) | 80 | 68 | 65 | 4.11 | 83 | – | – | – | – | – | – | – | – | –
2 | CC(=O)NCCCC[C@@H]1NC(=O)[C@H](Cc2c[nH]c3c(C)cccc23)NC(=O)[C@@H](N(C)C)CCCCNC(=O)[C@@H]2CSSC[C@H](NC1=O)C(=O)N[C@@H](Cc1ccc(OCCN(C)C)cc1)C(=O)N[C@@H](Cc1ccc3ccccc3c1)C(=O)N[C@@](C)(CCCCN(C)C)C(=O)N[C@H](C(=O)N[C@@H](CC(N)=O)C(=O)N[C@@H](Cc1cccnc1)C(=O)N(C)CC(N)=O)CCC(=O)N(C)CCCCC(=O)N2 [compound 61] ([NMe5Ava]C[X2][Trp(7-Me)]K(Ac)CY(Me2NCH2CH2)[2Nal][αMeLys(Me2)]EN[3Pal][Sar]-NH2; disulfide 2-6; lactam N-10) | 90 | 74 | 62 | 4.4 | 96 | – | – | – | – | – | – | – | – | –
3 | CC(=O)NCCCC[C@@H]1NC(=O)[C@H](Cc2c[nH]c3c(C)cccc23)NC(=O)[C@@H](NC(C)=O)CCCCNC(=O)[C@@H]2CSSC[C@H](NC1=O)C(=O)N[C@@H](Cc1ccc(OCCN(C)C)cc1)C(=O)N[C@@H](Cc1ccc3ccccc3c1)C(=O)NC1(CCOCC1)C(=O)N[C@H](C(=O)N[C@@H](CC(N)=O)C(=O)N[C@@H](Cc1cccnc1)C(=O)N(C)CC(N)=O)CCCCN(C)CCCCN2C [compound 127] | 99 | 101 | 97 | – | 100 | 0.53 | 6.0 | 9.0 | 11.0 | ≥ 1520 | ≥ 1130 | ≥ 1120 | 620 (≈ 333 µM) | –
4 | B1 | – | – | – | – | – | – | – | – | – | – | – | – | – | 0.39
